Assay results as given in patent US10227357B2, “Compounds and methods for kinase modulation, and indications therefor” (Plexxikon Inc., priority 2012, dated 2019).

Experiments:
c-kit kinase = biological target: T1, c-kit kinase (Homo sapiens, UniProt P10721); experiment: c-Kit biochemical assay, AlphaScreen, 10 μM ATP; conditions: c-kit biochemical inhibitory activity; read-out: Biochemical activity (IC50 μM) Kit
T1 construct: The c-kit (or kinase domain thereof) is an active kinase in AlphaScreen; poly-Histidine tag (in-house protein only) (cleaved yes); host or cells: E. coli BL21(DE3)RIL, co-expressed with PTP1B
T1 sequence (P10721 26-976): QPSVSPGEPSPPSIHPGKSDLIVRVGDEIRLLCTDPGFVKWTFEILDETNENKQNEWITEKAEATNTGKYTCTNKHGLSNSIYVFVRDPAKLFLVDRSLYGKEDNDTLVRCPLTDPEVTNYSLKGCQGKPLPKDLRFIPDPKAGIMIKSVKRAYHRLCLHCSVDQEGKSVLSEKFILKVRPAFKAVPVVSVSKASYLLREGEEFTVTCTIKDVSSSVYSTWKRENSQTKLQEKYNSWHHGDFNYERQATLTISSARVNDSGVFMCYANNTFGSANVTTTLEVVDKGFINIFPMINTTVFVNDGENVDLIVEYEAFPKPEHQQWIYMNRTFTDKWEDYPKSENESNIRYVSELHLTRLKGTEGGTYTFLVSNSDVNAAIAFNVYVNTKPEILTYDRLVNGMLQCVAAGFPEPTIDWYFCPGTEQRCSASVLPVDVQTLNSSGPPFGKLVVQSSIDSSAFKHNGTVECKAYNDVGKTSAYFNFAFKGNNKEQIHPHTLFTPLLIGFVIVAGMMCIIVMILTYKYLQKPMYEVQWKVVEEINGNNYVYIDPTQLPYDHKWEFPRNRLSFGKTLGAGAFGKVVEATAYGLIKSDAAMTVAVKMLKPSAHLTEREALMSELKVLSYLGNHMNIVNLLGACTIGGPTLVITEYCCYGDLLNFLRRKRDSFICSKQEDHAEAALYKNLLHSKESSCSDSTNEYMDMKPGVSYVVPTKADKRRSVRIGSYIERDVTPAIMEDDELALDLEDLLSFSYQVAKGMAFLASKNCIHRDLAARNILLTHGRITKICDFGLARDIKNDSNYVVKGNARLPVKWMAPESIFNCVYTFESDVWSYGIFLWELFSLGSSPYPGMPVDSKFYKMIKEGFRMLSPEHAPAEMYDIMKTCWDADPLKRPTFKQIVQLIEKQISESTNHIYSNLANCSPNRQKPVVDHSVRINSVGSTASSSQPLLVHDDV
Outline: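 His-tagged c-Kit expressed in E. coli with co-expressed PTP1B (dephosphorylated), tag removed; 0.1 ng per reaction with biotinylated-peptide substrate in 50 mM HEPES pH 7.2, 5 mM MgCl2, 5 mM MnCl2, 5% DMSO, 10 μM ATP, 1 h at room temperature. Phosphorylation detected by AlphaScreen (streptavidin donor, PY20 acceptor beads); IC50 from 8-point 1:3 dilution series.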

c-kit mutant D816V = biological target: T2, c-kit mutant D816V (Homo sapiens, UniProt P10721, D816V/DEL694-753); experiment: c-Kit mutant D816V biochemical assay, AlphaScreen; conditions: c-kit D816V biochemical inhibitory activity; read-out: Biochemical activity (IC50 μM) Kit D816V
T2 construct: residues 551-934, kinase insertion domain residues 694-753 deleted; 6x-histidine (N); made in house; host or cells: E. coli Arctic Express (DE3) RIL (Stratagene)
T2 sequence (P10721 with tags, fused parts or gaps DEL694-753/D816V): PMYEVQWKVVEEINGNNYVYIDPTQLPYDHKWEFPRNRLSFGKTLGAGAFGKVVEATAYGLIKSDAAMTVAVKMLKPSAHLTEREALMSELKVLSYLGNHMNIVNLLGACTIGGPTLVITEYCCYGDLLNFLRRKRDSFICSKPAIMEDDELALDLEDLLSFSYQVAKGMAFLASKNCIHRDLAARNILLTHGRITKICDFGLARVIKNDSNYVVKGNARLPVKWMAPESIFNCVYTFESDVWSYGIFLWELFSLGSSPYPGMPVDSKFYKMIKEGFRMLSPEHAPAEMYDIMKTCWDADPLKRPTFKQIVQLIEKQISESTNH
Outline: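 Purified His-tagged c-Kit D816V (E. coli-expressed) assayed in 25 mM HEPES pH 7.2 with Mg/Mn, 5% DMSO and 10 μM ATP, 30 min at room temperature, 8-point 1:3 dilutions. Phosphorylation detected by AlphaScreen with streptavidin donor and PY20 acceptor beads; IC50 from signal versus concentration.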

Structure (SMILES): COc1cccc([C@H](C)NC(=O)N2CCN(c3ncnc4cc(C5=CC(C)(C)NC(C)(C)C5)sc34)CC2)c1 [P-0574, N-[(1S)-1-(3-methoxyphenyl)ethyl]-4-[6-(2,2,6,6-tetramethyl-1,3-dihydropyridin-4-yl)thieno[3,2-d]pyrimidin-4-yl]piperazine-1-carboxamide]
- IC50 (c-kit kinase): 1 to 10 µM
- IC50 (c-kit mutant D816V): 0.0001 to 1 µM

Structure (SMILES): O=C(Nc1ccc(OC(F)(F)F)cc1)N1CCN(c2ncnc3[nH]c(-c4ccccc4F)cc23)CC1 [P-0067, 4-[6-(2-fluorophenyl)-7H-pyrrolo[2,3-d]pyrimidin-4-yl]-N-[4-(trifluoromethoxy)phenyl]piperazine-1-carboxamide]
- IC50 (c-kit kinase): 0.0001 to 1 µM
- IC50 (c-kit mutant D816V): 1 to 10 µM

Structure (SMILES): C[C@@H]1CN(c2ncnc3[nH]c(-c4ccncc4)cc23)CCN1C(=O)NCc1ccc(Cl)cc1 [P-0064, (2R)-N-[(4-chlorophenyl)methyl]-2-methyl-4-[6-(4-pyridyl)-7H-pyrrolo[2,3-d]pyrimidin-4-yl]piperazine-1-carboxamide]
- IC50 (c-kit kinase): 0.0001 to 1 µM
- IC50 (c-kit mutant D816V): 0.0001 to 1 µM

Structure (SMILES): C[C@H](NC(=O)N1CCN(c2ncnc3cc(-c4ccc(F)cc4)sc23)C[C@H]1C)c1cccc(OC(F)F)c1 [P-0586, (2R)-N-[(1S)-1-[3-(difluoromethoxy)phenyl]ethyl]-4-[6-(4-fluorophenyl)thieno[3,2-d]pyrimidin-4-yl]-2-methyl-piperazine-1-carboxamide]
- IC50 (c-kit kinase): 1 to 10 µM
- IC50 (c-kit mutant D816V): 0.0001 to 1 µM

Structure (SMILES): Cc1ccc(S(=O)(=O)Nc2ccc(-c3ncnc4[nH]nc(C)c34)cc2)cc1 [P-0447, 4-methyl-N-[4-(3-methyl-1H-pyrazolo[3,4-d]pyrimidin-4-yl)phenyl]benzenesulfonamide]
- IC50 (c-kit kinase): 1 to 10 µM
- IC50 (c-kit mutant D816V): 0.0001 to 1 µM

Structure (SMILES): C[C@H](NC(=O)N1CCN(c2ncnc3[nH]c(-c4ccc(F)cc4)cc23)C[C@H]1C)c1ccc(F)cc1 [P-0030, (2R)-N-[(1S)-1-(4-fluorophenyl)ethyl]-4-[6-(4-fluorophenyl)-7H-pyrrolo[2,3-d]pyrimidin-4-yl]-2-methyl-piperazine-1-carboxamide]
- IC50 (c-kit kinase): 10 to 200 µM
- IC50 (c-kit mutant D816V): 0.0001 to 1 µM

Structure (SMILES): CCCc1ccc(S(=O)(=O)Nc2ccc(-c3ncnc4[nH]c(C)cc34)cc2)cc1 [P-0282, N-[4-(6-methyl-7H-pyrrolo[2,3-d]pyrimidin-4-yl)phenyl]-4-propyl-benzenesulfonamide]
- IC50 (c-kit kinase): 1 to 10 µM
- IC50 (c-kit mutant D816V): 0.0001 to 1 µM

Structure (SMILES): O=C(NS(=O)(=O)c1ccc(Cl)cc1)N1CCN(c2ncnc3[nH]c(-c4ccc(F)cc4)cc23)CC1 [P-0098, N-(4-chlorophenyl)sulfonyl-4-[6-(4-fluorophenyl)-7H-pyrrolo[2,3-d]pyrimidin-4-yl]piperazine-1-carboxamide]
- IC50 (c-kit kinase): 1 to 10 µM
- IC50 (c-kit mutant D816V): 1 to 10 µM

Structure (SMILES): COc1cc(-c2cc3ncnc(N4CCN(C(=O)N[C@@H](C)c5cccc(Cl)c5)C(C)(C)C4)c3s2)ccn1 [P-0556, N-[(1S)-1-(3-chlorophenyl)ethyl]-4-[6-(2-methoxy-4-pyridyl)thieno[3,2-d]pyrimidin-4-yl]-2,2-dimethyl-piperazine-1-carboxamide]
- IC50 (c-kit kinase): 1 to 10 µM
- IC50 (c-kit mutant D816V): 0.0001 to 1 µM

Structure (SMILES): Cc1cc2c(-c3ccc(NS(=O)(=O)c4ccc(OC(F)F)cc4)c(F)c3)ncnc2[nH]1 [P-0360, 4-(difluoromethoxy)-N-[2-fluoro-4-(6-methyl-7H-pyrrolo[2,3-d]pyrimidin-4-yl)phenyl]benzenesulfonamide]
- IC50 (c-kit kinase): 1 to 10 µM
- IC50 (c-kit mutant D816V): 10 to 200 µM

Structure (SMILES): Cc1cc2c(-c3ccc(NS(=O)(=O)c4ccc(F)cc4)cc3F)ncnc2[nH]1 [P-0362, 4-fluoro-N-[3-fluoro-4-(6-methyl-7H-pyrrolo[2,3-d]pyrimidin-4-yl)phenyl]benzenesulfonamide]
- IC50 (c-kit kinase): 1 to 10 µM
- IC50 (c-kit mutant D816V): 0.0001 to 1 µM

Structure (SMILES): Cc1n[nH]c2ncnc(-c3ccc(NS(=O)(=O)c4ccc(Cl)cc4)cc3)c12 [P-0445, 4-chloro-N-[4-(3-methyl-1H-pyrazolo[3,4-d]pyrimidin-4-yl)phenyl]benzenesulfonamide]
- IC50 (c-kit kinase): 1 to 10 µM
- IC50 (c-kit mutant D816V): 0.0001 to 1 µM

Structure (SMILES): COc1cccc([C@H](C)NC(=O)N2CCN(c3ncnc4[nH]c(C)cc34)CC2)c1 [P-0003, N-[(1S)-1-(3-methoxyphenyl)ethyl]-4-(6-methyl-7H-pyrrolo[2,3-d]pyrimidin-4-yl)piperazine-1-carboxamide]
- IC50 (c-kit kinase): 10 to 200 µM
- IC50 (c-kit mutant D816V): 0.0001 to 1 µM

Structure (SMILES): Cc1nc(-c2cccc(NC(=O)NC3CCN(c4ncnc5[nH]ccc45)CC3)c2)no1 [P-0507, 1-[3-(5-methyl-1,2,4-oxadiazol-3-yl)phenyl]-3-[1-(7H-pyrrolo[2,3-d]pyrimidin-4-yl)-4-piperidyl]urea]
- IC50 (c-kit kinase): 10 to 200 µM
- IC50 (c-kit mutant D816V): 10 to 200 µM

Structure (SMILES): CCOc1cccc(-c2[nH]c(C3CCN(c4ncnc5[nH]c(-c6ccnc(OC)c6)cc45)CC3)nc2C)c1 [P-0714, 4-[4-[5-(3-ethoxyphenyl)-4-methyl-1H-imidazol-2-yl]-1-piperidyl]-6-(2-methoxy-4-pyridyl)-7H-pyrrolo[2,3-d]pyrimidine]
- IC50 (c-kit kinase): 10 to 200 µM
- IC50 (c-kit mutant D816V): 0.0001 to 1 µM

Structure (SMILES): CNC(=O)c1cccc(-c2cc3c(N4CCN(C(=O)Nc5ccc(OC(F)(F)F)cc5)CC4)ncnc3[nH]2)c1 [P-0116, 4-[6-[3-(methylcarbamoyl)phenyl]-7H-pyrrolo[2,3-d]pyrimidin-4-yl]-N-[4-(trifluoromethoxy)phenyl]piperazine-1-carboxamide]
- IC50 (c-kit kinase): 0.0001 to 1 µM
- IC50 (c-kit mutant D816V): 10 to 200 µM

Structure (SMILES): O=S(=O)(Nc1ccc(-c2ncnc3[nH]c(C4=CCCC4)cc23)cc1)c1ccc(F)cc1 [P-0296, N-[4-[6-(cyclopenten-1-yl)-7H-pyrrolo[2,3-d]pyrimidin-4-yl]phenyl]-4-fluoro-benzenesulfonamide]
- IC50 (c-kit kinase): 1 to 10 µM
- IC50 (c-kit mutant D816V): 0.0001 to 1 µM

Structure (SMILES): Cc1ccc(S(=O)(=O)NC2CCN(c3ncnc4[nH]c(-c5cnn(C)c5)cc34)CC2)cc1 [P-0451, 4-methyl-N-[1-[6-(1-methylpyrazol-4-yl)-7H-pyrrolo[2,3-d]pyrimidin-4-yl]-4-piperidyl]benzenesulfonamide]
- IC50 (c-kit kinase): 1 to 10 µM
- IC50 (c-kit mutant D816V): 0.0001 to 1 µM

Structure (SMILES): Cc1cc2c(-c3ccc(NS(C)(=O)=O)cc3)ncnc2[nH]1 [P-0379, N-[4-(6-methyl-7H-pyrrolo[2,3-d]pyrimidin-4-yl)phenyl]methanesulfonamide]
- IC50 (c-kit kinase): 10 to 200 µM
- IC50 (c-kit mutant D816V): 1 to 10 µM

Structure (SMILES): CC(=O)Nc1ccc(-c2cc3c(N4CCN(C(=O)Nc5ccc(OC(F)(F)F)cc5)CC4)ncnc3[nH]2)cn1 [P-0084, 4-[6-(6-acetamido-3-pyridyl)-7H-pyrrolo[2,3-d]pyrimidin-4-yl]-N-[4-(trifluoromethoxy)phenyl]piperazine-1-carboxamide]
- IC50 (c-kit kinase): 1 to 10 µM
- IC50 (c-kit mutant D816V): 0.0001 to 1 µM

Structure (SMILES): Cc1ccc2sc(S(=O)(=O)NC3CCN(c4ncnc5[nH]c(-c6cnn(C)c6)cc45)CC3)cc2c1 [P-0455, 5-methyl-N-[1-[6-(1-methylpyrazol-4-yl)-7H-pyrrolo[2,3-d]pyrimidin-4-yl]-4-piperidyl]benzothiophene-2-sulfonamide]
- IC50 (c-kit kinase): 1 to 10 µM
- IC50 (c-kit mutant D816V): 0.0001 to 1 µM

Structure (SMILES): C[C@@H]1CN(c2ncnc3[nH]c(-c4ccc(F)cc4)cc23)CCN1C(=O)N[C@H](C)c1ccc(Cl)cc1 [P-0035, (2R)-N-[(1R)-1-(4-chlorophenyl)ethyl]-4-[6-(4-fluorophenyl)-7H-pyrrolo[2,3-d]pyrimidin-4-yl]-2-methyl-piperazine-1-carboxamide]
- IC50 (c-kit kinase): 10 to 200 µM
- IC50 (c-kit mutant D816V): 1 to 10 µM

Structure (SMILES): Cc1cc2c(-c3ccc(NS(=O)(=O)c4ccc(C)c(F)c4)cc3F)ncnc2[nH]1 [P-0365, 3-fluoro-N-[3-fluoro-4-(6-methyl-7H-pyrrolo[2,3-d]pyrimidin-4-yl)phenyl]-4-methyl-benzenesulfonamide]
- IC50 (c-kit kinase): 10 to 200 µM
- IC50 (c-kit mutant D816V): 1 to 10 µM

Structure (SMILES): COc1ccc(CNC(=O)N2CCN(c3ncnc4[nH]c(-c5ccc(F)cc5)cc34)CC2)cc1 [P-0157, 4-[6-(4-fluorophenyl)-7H-pyrrolo[2,3-d]pyrimidin-4-yl]-N-[(4-methoxyphenyl)methyl]piperazine-1-carboxamide]
- IC50 (c-kit kinase): 10 to 200 µM
- IC50 (c-kit mutant D816V): 10 to 200 µM

Structure (SMILES): O=C(N1CC=C(c2cc3ncnc(-c4ccc(NS(=O)(=O)C5CC5)cc4)c3s2)CC1)N1CCOCC1 [P-0554, N-[4-[6-[1-(morpholine-4-carbonyl)-3,6-dihydro-2H-pyridin-4-yl]thieno[3,2-d]pyrimidin-4-yl]phenyl]cyclopropanesulfonamide]
- IC50 (c-kit kinase): 0.0001 to 1 µM
- IC50 (c-kit mutant D816V): 0.0001 to 1 µM

Structure (SMILES): Cc1cc2c(-c3ccc(NS(=O)(=O)c4ccc(F)cc4)c(F)c3)ncnc2[nH]1 [P-0346, 4-fluoro-N-[2-fluoro-4-(6-methyl-7H-pyrrolo[2,3-d]pyrimidin-4-yl)phenyl]benzenesulfonamide]
- IC50 (c-kit kinase): 1 to 10 µM
- IC50 (c-kit mutant D816V): 1 to 10 µM

Structure (SMILES): CN(C)c1ccc(NC(=O)N2CCN(c3ncnc4[nH]c(C#CC5CC5)cc34)CC2)cc1 [P-0052, 4-[6-(2-cyclopropylethynyl)-7H-pyrrolo[2,3-d]pyrimidin-4-yl]-N-(4-dimethylaminophenyl)piperazine-1-carboxamide]
- IC50 (c-kit kinase): 1 to 10 µM
- IC50 (c-kit mutant D816V): 10 to 200 µM

Structure (SMILES): Cc1cc2c(-c3ccc(NS(=O)(=O)c4ccc(Cl)s4)cc3)ncnc2[nH]1 [P-0323, 5-chloro-N-[4-(6-methyl-7H-pyrrolo[2,3-d]pyrimidin-4-yl)phenyl]thiophene-2-sulfonamide]
- IC50 (c-kit kinase): 1 to 10 µM
- IC50 (c-kit mutant D816V): 1 to 10 µM

Structure (SMILES): Fc1ccc(-c2cc3c(-c4ccc(NCc5ccc(C(F)(F)F)nc5)nc4)ncnc3[nH]2)cc1 [P-0415, 5-[6-(4-fluorophenyl)-7H-pyrrolo[2,3-d]pyrimidin-4-yl]-N-[[6-(trifluoromethyl)-3-pyridyl]methyl]pyridin-2-amine]
- IC50 (c-kit kinase): 0.0001 to 1 µM
- IC50 (c-kit mutant D816V): 1 to 10 µM
